Experimental data reported in ChEMBL document CHEMBL4346705, “(±)-trans-Dihydronarciclasine and (±)-trans-dihydrolycoricidine analogues modified in their ring A: Evaluation of their anticancer activity and a SAR study” (2019).

How the values were obtained:
Format in all cases: functional
HCT-116 = test: Antiproliferative activity against human HCT116 cells assessed as cell viability at 10^-5 M incubated for 48 hrs by sulforhodamine B assay relative to control; conditions: HCT-116, 48 h, read-out: Activity
TK-10 = test: Antiproliferative activity against human TK10 cells assessed as cell viability at 10^-5 M incubated for 48 hrs by sulforhodamine B assay relative to control; conditions: TK-10, 48 h, read-out: Activity
NCI-H460 = test: Antiproliferative activity against human NCI-H460 cells assessed as cell viability at 10^-5 M incubated for 48 hrs by sulforhodamine B assay relative to control; conditions: NCI-H460, 48 h, read-out: Activity
HCT-15 = test: Antiproliferative activity against human HCT15 cells assessed as cell viability at 10^-5 M incubated for 48 hrs by sulforhodamine B assay relative to control; conditions: HCT-15, 48 h, read-out: Activity
M14 = test: Antiproliferative activity against human M14 cells assessed as cell viability at 10^-5 M incubated for 48 hrs by sulforhodamine B assay relative to control; conditions: M14, 48 h, read-out: Activity
A549 = test: Antiproliferative activity against human A549 cells assessed as cell viability at 10^-5 M incubated for 48 hrs by sulforhodamine B assay relative to control; conditions: A549, 48 h, read-out: Activity
OVCAR-5 = test: Antiproliferative activity against human OVCAR5 cells assessed as cell viability at 10^-5 M incubated for 48 hrs by sulforhodamine B assay relative to control; conditions: OVCAR-5, 48 h, read-out: Activity
HCC 2998 = test: Antiproliferative activity against human HCC2998 cells assessed as cell viability at 10^-5 M incubated for 48 hrs by sulforhodamine B assay relative to control; conditions: HCC 2998, 48 h, read-out: Activity
ACHN = test: Antiproliferative activity against human ACHN cells assessed as cell viability at 10^-5 M incubated for 48 hrs by sulforhodamine B assay relative to control; conditions: read-out: Activity
PC-3 = test: Antiproliferative activity against human PC3 cells assessed as cell viability at 10^-5 M incubated for 48 hrs by sulforhodamine B assay relative to control; conditions: PC-3, 48 h, read-out: Activity
SR = test: Antiproliferative activity against human SR cells assessed as cell viability at 10^-5 M incubated for 48 hrs by sulforhodamine B assay relative to control; conditions: read-out: Activity
UO-31 = test: Antiproliferative activity against human UO31 cells assessed as cell viability at 10^-5 M incubated for 48 hrs by sulforhodamine B assay relative to control; conditions: UO-31, 48 h, read-out: Activity
UACC-257 = test: Antiproliferative activity against human UACC257 cells assessed as cell viability at 10^-5 M incubated for 48 hrs by sulforhodamine B assay relative to control; conditions: UACC-257, 48 h, read-out: Activity
786-0 = test: Antiproliferative activity against human 786-0 cells assessed as cell viability at 10^-5 M incubated for 48 hrs by sulforhodamine B assay relative to control; conditions: 786-0, 48 h, read-out: Activity
SW-620 = test: Antiproliferative activity against human SW620 cells assessed as cell viability at 10^-5 M incubated for 48 hrs by sulforhodamine B assay relative to control; conditions: SW-620, 48 h, read-out: Activity
HOP-92 = test: Antiproliferative activity against human HOP92 cells assessed as cell viability at 10^-5 M incubated for 48 hrs by sulforhodamine B assay relative to control; conditions: HOP-92, 48 h, read-out: Activity
BT-549 = test: Antiproliferative activity against human BT549 cells assessed as cell viability at 10^-5 M incubated for 48 hrs by sulforhodamine B assay relative to control; conditions: BT-549, 48 h, read-out: Activity
SNB-19 = test: Antiproliferative activity against human SNB19 cells assessed as cell viability at 10^-5 M incubated for 48 hrs by sulforhodamine B assay relative to control; conditions: SNB-19, 48 h, read-out: Activity
Malme-3M = test: Antiproliferative activity against human MALME-3M cells assessed as cell viability at 10^-5 M incubated for 48 hrs by sulforhodamine B assay relative to control; conditions: read-out: Activity
DU-145 = test: Antiproliferative activity against human DU145 cells assessed as cell viability at 10^-5 M incubated for 48 hrs by sulforhodamine B assay relative to control; conditions: DU-145, 48 h, read-out: Activity
OVCAR-3 = test: Antiproliferative activity against human OVCAR3 cells assessed as cell viability at 10^-5 M incubated for 48 hrs by sulforhodamine B assay relative to control; conditions: OVCAR-3, 48 h, read-out: Activity
SF-268 = test: Antiproliferative activity against human SF268 cells assessed as cell viability at 10^-5 M incubated for 48 hrs by sulforhodamine B assay relative to control; conditions: SF-268, 48 h, read-out: Activity
RPMI-8226 = test: Antiproliferative activity against human RPMI8226 cells assessed as cell viability at 10^-5 M incubated for 48 hrs by sulforhodamine B assay relative to control; conditions: RPMI-8226, 48 h, read-out: Activity
IGROV-1 = test: Antiproliferative activity against human IGROV1 cells assessed as cell viability at 10^-5 M incubated for 48 hrs by sulforhodamine B assay relative to control; conditions: IGROV-1, 48 h, read-out: Activity
HL-60(TB) = test: Antiproliferative activity against human HL-60(TB) cells assessed as cell viability at 10^-5 M incubated for 48 hrs by sulforhodamine B assay relative to control; conditions: HL-60, 48 h, read-out: Activity
MDA-MB-435 = test: Antiproliferative activity against human MDA-MB-435 cells assessed as cell viability at 10^-5 M incubated for 48 hrs by sulforhodamine B assay relative to control; conditions: MDA-MB-435, 48 h, read-out: Activity
COLO 205 = test: Antiproliferative activity against human COLO205 cells assessed as cell viability at 10^-5 M incubated for 48 hrs by sulforhodamine B assay relative to control; conditions: COLO 205, 48 h, read-out: Activity
U-251 = test: Antiproliferative activity against human U251 cells assessed as cell viability at 10^-5 M incubated for 48 hrs by sulforhodamine B assay relative to control; conditions: U-251, 48 h, read-out: Activity
T47D = test: Antiproliferative activity against human T47D cells assessed as cell viability at 10^-5 M incubated for 48 hrs by sulforhodamine B assay relative to control; conditions: read-out: Activity
CCRF-CEM = test: Antiproliferative activity against human CCRF-CEM cells assessed as cell viability at 10^-5 M incubated for 48 hrs by sulforhodamine B assay relative to control; conditions: read-out: Activity
SK-OV-3 = test: Antiproliferative activity against human SKOV3 cells assessed as cell viability at 10^-5 M incubated for 48 hrs by sulforhodamine B assay relative to control; conditions: SK-OV-3, 48 h, read-out: Activity
K562 = test: Antiproliferative activity against human K562 cells assessed as cell viability at 10^-5 M incubated for 48 hrs by sulforhodamine B assay relative to control; conditions: K562, 48 h, read-out: Activity

Compound | viability at 10 µM (HCT-116) | viability at 10 µM (TK-10) | viability at 10 µM (NCI-H460) | viability at 10 µM (HCT-15) | viability at 10 µM (M14) | viability at 10 µM (A549) | viability at 10 µM (OVCAR-5) | viability at 10 µM (HCC 2998) | viability at 10 µM (ACHN) | viability at 10 µM (PC-3) | viability at 10 µM (SR) | viability at 10 µM (UO-31) | viability at 10 µM (UACC-257) | viability at 10 µM (786-0) | viability at 10 µM (SW-620) | viability at 10 µM (HOP-92) | viability at 10 µM (BT-549) | viability at 10 µM (SNB-19) | viability at 10 µM (Malme-3M) | viability at 10 µM (DU-145) | also measured
CCCOc1cc2c(cc1OCC)C1CC(O)C(O)C(O)C1NC2=O (racemic) | 101% | 99% | 107% | 112% | 103% | 107% | 105% | 106% | 107% | 97.1% | 116% | 88.9% | 104% | 101% | 101% | 110% | 97.1% | 105% | 108% | 110% | viability at 10 µM (OVCAR-3): 112%; viability at 10 µM (SF-268): 97.6%; viability at 10 µM (RPMI-8226): 104%; viability at 10 µM (IGROV-1): 103%; viability at 10 µM (HL-60(TB)): 101%; viability at 10 µM (MDA-MB-435): 105%; viability at 10 µM (COLO 205): 110%; viability at 10 µM (U-251): 98.5%; viability at 10 µM (T47D): 105%; viability at 10 µM (CCRF-CEM): 107%; viability at 10 µM (SK-OV-3): 109%; viability at 10 µM (K562): 105%
COc1cc2c(c(OC)c1OC)C(=O)NC1C2CC(O)C(O)C1O (racemic) | 98.9% | 98.5% | 110% | 104% | 98.5% | 98.4% | 106% | 101% | 99.7% | 96.5% | 95.6% | 87.1% | 100% | 94.9% | 109% | 91.4% | 110% | 99% | 108% | 110% | viability at 10 µM (OVCAR-3): 112%; viability at 10 µM (SF-268): 103%; viability at 10 µM (RPMI-8226): 102%; viability at 10 µM (IGROV-1): 111%; viability at 10 µM (HL-60(TB)): 99.3%; viability at 10 µM (MDA-MB-435): 110%; viability at 10 µM (COLO 205): 108%; viability at 10 µM (U-251): 98.9%; viability at 10 µM (T47D): 100%; viability at 10 µM (CCRF-CEM): 104%; viability at 10 µM (SK-OV-3): 99.9%; viability at 10 µM (K562): 96.6%
COc1c2c(cc3c1C(=O)NC1C3CC(O)C(O)C1O)OCCO2 (racemic) | 102% | 95.7% | 109% | 102% | 105% | 96.5% | 105% | 106% | 103% | 97.7% | 92.1% | 86.4% | 98.8% | 97.4% | 104% | 91.6% | 99.5% | 102% | 106% | 107% | viability at 10 µM (OVCAR-3): 104%; viability at 10 µM (SF-268): 97.9%; viability at 10 µM (RPMI-8226): 102%; viability at 10 µM (IGROV-1): 109%; viability at 10 µM (HL-60(TB)): 95.4%; viability at 10 µM (MDA-MB-435): 108%; viability at 10 µM (COLO 205): 103%; viability at 10 µM (U-251): 100%; viability at 10 µM (T47D): 84.9%; viability at 10 µM (CCRF-CEM): 105%; viability at 10 µM (SK-OV-3): 98.6%; viability at 10 µM (K562): 95.6%
CCOc1cc2c(c(OCC)c1OCC)C(=O)NC1C2CC(O)C(O)C1O (racemic) | 101% | 98.5% | 109% | 104% | 103% | 95.8% | 104% | 107% | 105% | 89.4% | 96.2% | 88.4% | 101% | 97.9% | 107% | 82.8% | 108% | 104% | 112% | 113% | viability at 10 µM (OVCAR-3): 104%; viability at 10 µM (SF-268): 99.5%; viability at 10 µM (RPMI-8226): 102%; viability at 10 µM (IGROV-1): 108%; viability at 10 µM (HL-60(TB)): 96.1%; viability at 10 µM (MDA-MB-435): 104%; viability at 10 µM (COLO 205): 115%; viability at 10 µM (U-251): 101%; viability at 10 µM (T47D): 100%; viability at 10 µM (CCRF-CEM): 99.1%; viability at 10 µM (SK-OV-3): 105%; viability at 10 µM (K562): 98.4%
